Assay results reported in patent US8993574B2, “Pyrrole antifungal agents” (F2G Ltd, priority 2008, dated 2015).
≈ marks a conversion by molar mass, not a printed value.

Tests used:
Type in all cases: cell-based
[1] = tested on: Aspergillus flavus; experiment: MIC, YAG medium; details: 24 h at 35° C, MIC banded into grades; for MIC: Aspergillus flavus, 24 h, read-out: MIC grade, A. flavus
In short: (§1)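 Spores harvested from 5-day Sabouraud agar cultures were inoculated at 1−2×10^4 cfu/mL into YAG medium (1% glucose, 1% ammonium chloride, 0.5% yeast extract) over doubling drug dilutions spanning 50-0.05 mg/L, or 0.5-0.0005 mg/L on repeat. After 24 h at 35° C, OD485 was read. MIC is the lowest concentration inhibiting growth >70% versus drug-free control, in mg/L.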

[2] = tested on: Aspergillus fumigatus AF210; experiment: MIC, YAG medium; details: 24 h at 35° C, MIC banded into grades; for MIC: Aspergillus fumigatus, read-out: MIC grade, A. fumigatus 210
In short: as §1

[3] = tested on: Aspergillus fumigatus AF293; experiment: MIC, YAG medium; details: 24 h at 35° C, MIC banded into grades; for MIC: Aspergillus fumigatus, read-out: MIC grade, A. fumigatus
In short: as §1

[4] = tested on: Aspergillus niger; experiment: MIC, YAG medium; details: 24 h at 35° C, MIC banded into grades; for MIC: Aspergillus niger, read-out: MIC grade, A. niger
In short: as §1

[5] = tested on: Aspergillus terreus AT49; experiment: MIC, YAG medium; details: 24 h at 35° C, MIC banded into grades; for MIC: Aspergillus terreus, read-out: MIC grade, A. terreus 49
In short: as §1

[6] = tested on: Aspergillus terreus AT4; experiment: MIC, YAG medium; details: 24 h at 35° C, MIC banded into grades; for MIC: Aspergillus terreus, read-out: MIC grade, A. terreus
In short: as §1

[7] = tested on: Aspergillus flavus; experiment: MIC, RPMI medium; details: MIC banded into grades; for MIC: Aspergillus flavus, read-out: MIC grade, A. flavus
In short: (§2)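 Minimum inhibitory concentrations were determined in glucose-supplemented (2%) RPMI buffered to pH 7.0 with 0.135 M MOPS. Wells held 1−2×10^4 cfu/mL and compound from 50 to 0.05 mg/L, incubated 24-48 h at 35° C, with >80% growth reduction by OD 485 nm as endpoint.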

[8] = tested on: Aspergillus fumigatus AF210; experiment: MIC, RPMI medium; details: for MIC: Aspergillus fumigatus, AF210, MIC banded into grades, read-out: MIC grade, A. fumigatus 210
In short: as §2

[9] = tested on: Aspergillus fumigatus AF293; experiment: MIC, RPMI medium; details: for MIC: Aspergillus fumigatus, AF293, MIC banded into grades, read-out: MIC grade, A. fumigatus
In short: as §2

[10] = tested on: Aspergillus niger; experiment: MIC, RPMI medium; details: MIC banded into grades; for MIC: Aspergillus niger, read-out: MIC grade, A. niger
In short: as §2

[11] = tested on: Aspergillus terreus AT49; experiment: MIC, RPMI medium; details: for MIC: Aspergillus terreus, AT49, MIC banded into grades, read-out: MIC grade, A. terreus 49
In short: as §2

[12] = tested on: Aspergillus terreus AT4; experiment: MIC, RPMI medium; details: for MIC: Aspergillus terreus, AT4, MIC banded into grades, read-out: MIC grade, A. terreus
In short: as §2

Row | SMILES | MIC [1] | MIC [2] | MIC [3] | MIC [4] | MIC [5] | MIC [6] | MIC [7] | MIC [8] | MIC [9] | MIC [10] | MIC [11] | MIC [12] | other results
1 | COC(=O)Cn1c(C)cc(-c2ccccc2)c1C(=O)C(=O)Nc1ccc(N2CCN(c3cc(C)cc(C)n3)CC2)cc1F [Example 111, (2-{4-[4-(4,6-Dimethyl-pyridin-2-yl)-piperazin-1-yl]-2-fluoro-phenylaminooxalyl}-5-methyl-3-phenyl-pyrrol-1-yl)-acetic acid methyl ester] |  |  |  |  |  |  |  |  |  |  |  |  | MIC grade, A. flavus [1]: 2 (A grade of 2 represents an MIC of from 1 to 10 mg/L); MIC grade, A. fumigatus 210 [2]: 3 (A grade of 3 represents an MIC of less than 1 mg/L); MIC grade, A. fumigatus [3]: 3 (A grade of 3 represents an MIC of less than 1 mg/L); MIC grade, A. niger [4]: 3 (A grade of 3 represents an MIC of less than 1 mg/L); MIC grade, A. terreus 49 [5]: 3 (A grade of 3 represents an MIC of less than 1 mg/L); MIC grade, A. terreus [6]: 3 (A grade of 3 represents an MIC of less than 1 mg/L); MIC grade, A. flavus [7]: 2 (A grade of 2 represents an MIC of from 1 to 10 mg/L); MIC grade, A. fumigatus 210 ([8]; MIC banded into grades): 3 (A grade of 3 represents an MIC of less than 1 mg/L); MIC grade, A. fumigatus ([9]; MIC banded into grades): 3 (A grade of 3 represents an MIC of less than 1 mg/L); MIC grade, A. niger [10]: 3 (A grade of 3 represents an MIC of less than 1 mg/L); MIC grade, A. terreus 49 ([11]; MIC banded into grades): 2 (A grade of 2 represents an MIC of from 1 to 10 mg/L); MIC grade, A. terreus ([12]; MIC banded into grades): 3 (A grade of 3 represents an MIC of less than 1 mg/L)
2 | CCCNC(=O)C(=O)c1c(-c2ccccc2)ccn1CCOC [Example 82, 2-[1-(2-Methoxy-ethyl)-3-phenyl-1H-pyrrol-2-yl]-2-oxo-N-propyl-acetamide] | > 10 µg/mL | 1 to 10 µg/mL (≈ 3.18 to 31.8 µM) | 1 to 10 µg/mL (≈ 3.18 to 31.8 µM) | > 10 µg/mL | 1 to 10 µg/mL (≈ 3.18 to 31.8 µM) | 1 to 10 µg/mL (≈ 3.18 to 31.8 µM) | > 10 µg/mL | > 10 µg/mL | > 10 µg/mL | > 10 µg/mL | > 10 µg/mL | > 10 µg/mL | 
3 | Cc1cc(C)nc(N2CCN(c3ccc(NC(=O)C(=O)c4c(-c5ccccc5)cc(C)n4CCO)cc3)CC2)c1 [Example 64, N-{4-[4-(4,6-Dimethyl-pyridin-2-yl)-piperazin-1-yl]-phenyl}-2-[1-(2-hydroxy-ethyl)-5-methyl-3-phenyl-1H-pyrrol-2-yl]-2-oxo-acetamide] | < 1 µg/mL | < 1 µg/mL | < 1 µg/mL | < 1 µg/mL | < 1 µg/mL | < 1 µg/mL | 1 to 10 µg/mL (≈ 1.86 to 18.6 µM) | < 1 µg/mL | < 1 µg/mL | < 1 µg/mL | < 1 µg/mL | 1 to 10 µg/mL (≈ 1.86 to 18.6 µM) | 
4 | Cc1cc(C)nc(N2CCN(c3ccc(NC(=O)C(=O)c4[nH]c(C)cc4-c4ccccc4)cc3)CC2)c1 [Example 50, N-{4-[4-(4,6-Dimethyl-pyridin-2-yl)-piperazin-1-yl]-phenyl}-2-(5-methyl-3-phenyl-1H-pyrrol-2-yl)-2-oxo-acetamide] | < 1 µg/mL | < 1 µg/mL | < 1 µg/mL | < 1 µg/mL | < 1 µg/mL | < 1 µg/mL | < 1 µg/mL | < 1 µg/mL | < 1 µg/mL | < 1 µg/mL | < 1 µg/mL | < 1 µg/mL | 

Continued, in another order:

Row | MIC [1] | MIC [2] | MIC [3] | MIC [4] | MIC [5] | MIC [6] | MIC [7] | MIC [8] | MIC [9] | MIC [10] | MIC [11] | MIC [12] | SMILES | other results
5 | < 1 µg/mL | < 1 µg/mL | < 1 µg/mL | < 1 µg/mL | < 1 µg/mL | < 1 µg/mL | < 1 µg/mL | 1 to 10 µg/mL (≈ 2.71 to 27.1 µM) | 1 to 10 µg/mL (≈ 2.71 to 27.1 µM) | 1 to 10 µg/mL (≈ 2.71 to 27.1 µM) | < 1 µg/mL | < 1 µg/mL | Cc1cc(-c2ccccc2)c(C(=O)C(=O)Nc2cnc3ccccc3c2)n1C [Example 37, 2-(1,5-Dimethyl-3-phenyl-1H-pyrrol-2-yl)-2-oxo-N-quinolin-3-yl-acetamide] | 
6 | > 10 µg/mL | > 10 µg/mL | > 10 µg/mL | > 10 µg/mL | > 10 µg/mL | > 10 µg/mL | > 10 µg/mL | > 10 µg/mL | > 10 µg/mL | > 10 µg/mL | > 10 µg/mL | > 10 µg/mL | COCCc1cc(C)n(-c2ccccc2)c1C(=O)C(=O)Nc1ccc(N2CCN(c3cc(C)cc(C)n3)CC2)cc1 [Example 80, N-{4-[4-(4,6-Dimethyl-pyridin-2-yl)-piperazin-1-yl]-phenyl}-2-[3-(2-methoxy-ethyl)-5-methyl-1-phenyl-1H-pyrrol-2-yl]-2-oxo-acetamide] | 
